From patent US11884676B2, “Substituted pyrimido[1,2-b]pyridazines as positive allosteric modulators of the muscarinic acetylcholine receptor M4” (Vanderbilt University, priority 2020, dated 2024)

Biological target: T1, Human M4 (Homo sapiens, UniProt P08173)
T1 construct: expressed in transfected cells
T1 sequence (P08173 1-479): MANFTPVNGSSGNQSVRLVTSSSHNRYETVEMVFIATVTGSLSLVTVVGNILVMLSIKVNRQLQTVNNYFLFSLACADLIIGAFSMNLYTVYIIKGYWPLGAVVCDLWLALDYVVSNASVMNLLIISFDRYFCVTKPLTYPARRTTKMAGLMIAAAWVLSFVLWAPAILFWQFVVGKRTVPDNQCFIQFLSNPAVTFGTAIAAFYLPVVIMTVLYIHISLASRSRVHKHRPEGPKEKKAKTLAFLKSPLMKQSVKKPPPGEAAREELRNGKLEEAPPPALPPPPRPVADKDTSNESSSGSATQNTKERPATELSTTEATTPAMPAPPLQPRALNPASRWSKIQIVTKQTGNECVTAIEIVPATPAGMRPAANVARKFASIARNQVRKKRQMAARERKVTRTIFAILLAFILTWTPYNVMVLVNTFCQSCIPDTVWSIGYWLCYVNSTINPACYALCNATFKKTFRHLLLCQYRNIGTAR
Test: mAChR M4 cell-based functional assay (calcium flux, PAM mode)
Conditions: hM4-Gqi5 CHO-K1 cells; for Emax at 30 µM: CHO-K1, % ACh maximum at 30 μM; for EC50: concentration-dependent increase in the EC20 acetylcholine response
Method: Human and rat M4 cDNAs, along with the chimeric G protein Gqi5, were transfected into Chinese hamster ovary (CHO-K1) cells purchased from the American Type Culture Collection using Lipofectamine2000. hM4-Gqi5 cells were grown in Ham's F-12 medium containing 10% heat-inactivated fetal bovine serum (FBS), 20 mM HEPES, 50 μg/mL G418 sulfate, and 500 μg/mL Hygromycin B. rM4-Gqi5 cells were grown in DMEM containing 10% heat-inactivated FBS, 20 mM HEPES, 400 μg/mL G418 sulfate, and 500 μg/mL Hygromycin B.
For high throughput measurement of agonist-evoked increases in intracellular calcium, CHO-K1 cells stably expressing muscarinic receptors were plated in growth medium lacking G418 and hygromycin at 15,000 cells/20 μL/well in Greiner 384-well black-walled, tissue culture (TC)-treated, clear-bottom plates (VWR). Cells were incubated overnight at 37° C. and 5% CO2. The next day, cells were washed using an ELX 405 (BioTek) with assay buffer; the final volume was then aspirated to 20 μL. Next, 20 μL of a 2.3 μM stock of Fluo-4/acetoxymethyl ester (Invitrogen, Carlsbad, CA), prepared as a 2.3 mM stock in DMSO and mixed in a 1:1 ratio with 10% (w/v) Pluronic F-127 and diluted in assay buffer, was added to the wells and the cell plates were incubated for 50 min at 37° C. and 5% CO2. Dye was removed by washing with the ELX 405 and the final volume was aspirated to 20 μL. Compound master plates were formatted in an 11 point concentration-response curve (CRC) format (1:3 dilutions) in 100% DMSO with a starting concentration of 10 mM using a BRAVO liquid handler (Agilent). Test compound CRCs were then transferred to daughter plates (240 nL) using the Echo acoustic plate reformatter (Labcyte, Sunnyvale, CA) and then diluted into assay buffer (40 μL) to a 2× stock using a Thermo Fisher Combi (Thermo Fisher Scientific, Waltham, MA).
Calcium flux was measured using the Functional Drug Screening System (FDSS) 6000 or 7000 (Hamamatsu Corporation, Tokyo, Japan) as an increase in the fluorescent static ratio. Compounds were applied to cells (20 μL, 2×) using the automated system of the FDSS at 2-4 seconds into the protocol and the data were collected at 1 Hz. At 144 seconds, 10 μL of an EC20 concentration of the muscarinic receptor agonist acetylcholine was added (5×), followed by the addition of 12 μL of an EC80 concentration of acetylcholine at the 230 second time point (5×). Agonist activity was analyzed as a concentration-dependent increase in calcium mobilization upon compound addition. Positive allosteric modulator activity was analyzed as a concentration-dependent increase in the EC20 acetylcholine response. Antagonist activity was analyzed as a concentration-dependent decrease in the EC80 acetylcholine response. Concentration-response curves were generated using a four-parameter logistical equation in XLFit curve fitting software (IDBS, Bridgewater, NJ) for Excel (Microsoft, Redmond, WA) or Prism (GraphPad Software, Inc., San Diego, CA).
Compounds were synthesized as described above. Activity (EC50 and Emax) was determined in the mAChR M4 cell-based functional assay as described above and the data are shown in Table 2. The compound number corresponds to the compound numbers used in Examples 1 to 11 and Tables 1.

Molecule `[2H]C1(Oc2ccc3c(c2)OCO3)CCN(c2nn3c(=O)ccnc3cc2C)CC1` [Compound 68, 7-(4-(benzo[d][1,3]dioxol-5-yloxy)piperidin-1-yl-4-d)-8-methyl-4H-pyrimido[1,2-b]pyridazin-4-one] has an Emax at 30 µM of 91% and an EC50 of 288 nM.

Molecule `Cc1cc2nccc(=O)n2nc1N1CC[C@H](Oc2ccc3c(c2)OCCO3)C[C@H]1C` [Compound 108, 7-((2R,4S)-4-((2,3-Dihydrobenzo[b][1,4]dioxin-6-yl)oxy)-2-methylpiperidin-1-yl)-8-methyl-4H-pyrimido[1,2-b]pyridazin-4-one] has an Emax at 30 µM of 99%.

`[2H]C1([2H])Oc2ccc(O[C@H]3CCN(c4nn5c(=O)ccnc5cc4C)C[C@@H]3F)cc2OC1([2H])[2H]` [Compound 42, 7-((3S,4S)-4-((2,3-dihydrobenzo[b][1,4]dioxin-6-yl-2,2,3,3-d4)oxy)-3-fluoropiperidin-1-yl)-8-methyl-4H-pyrimido[1,2-b]pyridazin-4-one] showed an Emax at 30 µM of 105% and an EC50 of 52 nM.

`Cc1cc(=O)n2nc(N3CCC(Oc4ccc5c(c4)CCNC5=O)CC3)c(C)cc2n1` [Compound 82, 2,8-dimethyl-7-(4-((1-oxo-1,2,3,4-tetrahydroisoquinolin-6-yl)oxy)piperidin-1-yl)-4H-pyrimido[1,2-b]pyridazin-4-one] showed an Emax at 30 µM of 74% and an EC50 of 3340 nM.

Molecule `[2H]C1(Oc2ccc3c(c2)OC([2H])([2H])C([2H])([2H])O3)CCN(c2nn3c(=O)ccnc3c(COC)c2C)CC1` [Compound 103, 7-(4-((2,3-dihydrobenzo[b][1,4]dioxin-6-yl-2,2,3,3-d4)oxy)piperidin-1-yl-4-d)-9-(methoxymethyl)-8-methyl-4H-pyrimido[1,2-b]pyridazin-4-one] has an Emax at 30 µM of 78% and an EC50 of 455 nM.

For `Cc1ccc(OC2CCN(c3nn4c(=O)ccnc4cc3C)CC2)cn1` [Compound 24, 8-methyl-7-(4-((6-methylpyridin-3-yl)oxy)piperidin-1-yl)-4H-pyrimido[1,2-b]pyridazin-4-one], the Emax at 30 µM was 73% and the EC50 was 782 nM.

Work on `[2H]C1(Oc2ccc3c(c2)OCCCO3)CCN(c2nn3c(=O)cc(C(F)F)nc3cc2C)CC1` [Compound 67, 2-(difluoromethyl)-7-(4-((3,4-dihydro-2H-benzo[b][1,4]dioxepin-7-yl)oxy)piperidin-1-yl-4-d)-8-methyl-4H-pyrimido[1,2-b]pyridazin-4-one] yielded an Emax at 30 µM of 109% and an EC50 of 17 nM.

For `Cc1cc2nccc(=O)n2nc1N1CC[C@@H](Oc2ccc3c(c2)OCCCO3)[C@H](F)C1` [Compound 55, 7-((3R,4R)-4-((3,4-dihydro-2H-benzo[b][1,4]dioxepin-7-yl)oxy)-3-fluoropiperidin-1-yl)-8-methyl-4H-pyrimido[1,2-b]pyridazin-4-one], the Emax at 30 µM was 80% and the EC50 was 135 nM.

For `Cc1c(N2CC[C@H](Oc3ccc4c(c3)OCCO4)C[C@H]2C)nn2c(=O)ccnc2c1C` [Compound 134, 7-((2R,4S)-4-((2,3-dihydrobenzo[b][1,4]dioxin-6-yl)oxy)-2-methylpiperidin-1-yl)-8,9-dimethyl-4H-pyrimido[1,2-b]pyridazin-4-one], the Emax at 30 µM was 105% and the EC50 was 25 nM.

In the case of `Cc1cc2nccc(=O)n2nc1N1CC[C@H](Oc2ccc3c(c2)OCCO3)[C@@H](C)C1` (single isomer, unassigned) [Compound 115, 7-((3S,4S) or (3R, 4R))-4-((2,3-dihydrobenzo[b][1,4]dioxin-6-yl)oxy)-3-methylpiperidin-1-yl)-8-methyl-4H-pyrimido[1,2-b]pyridazin-4-one], the Emax at 30 µM is reported as 78% and the EC50 is reported as 1560 nM.

For `Cc1cc2nccc(=O)n2nc1N1CC[C@@H](Oc2ccc3c(c2)OCCO3)[C@@H](F)C1` [Compound 34, 7-((3S,4R)-4-((2,3-dihydrobenzo[b][1,4]dioxin-6-yl)oxy)-3-fluoropiperidin-1-yl)-8-methyl-4H-pyrimido[1,2-b]pyridazin-4-one], the Emax at 30 µM was 116% and the EC50 was 70 nM.
